Experimental data taken from BindingDB's records for patent US20240343747 (Accro Bioscience (HK), 2024).

How the values were obtained:
Assay in all cases: Competitive Binding Assay
[1] = target: T1, Non-receptor tyrosine-protein kinase TYK2 [575-869] (Homo sapiens, UniProt P29597)
T1 construct: 575-869
Procedure: (§1) The lysates were centrifuged and filtered to remove cell debris. The remaining kinases were produced in HEK-293 cells and subsequently tagged with DNA for qPCR detection. Streptavidin coated magnetic beads were treated with biotinylated small molecule ligands for 30 minutes at room temperature to generate affinity resins for kinase assays. The liganded beads were blocked with excess biotin and washed with blocking buffer (SeaBlock (Pierce), 1% BSA, 0.05 % Tween 20, 1 mM DTT) to remove unbound ligand and to reduce non-specific binding. […] Test compounds were prepared as 111X stocks in 100% DMSO. Dissociation constants (Kds) were determined using an 11-point 3-fold compound dilution series with three DMSO control points. All compounds for Kd measurements are distributed by acoustic transfer (non-contact dispensing) in 100% DMSO. The compounds were then diluted directly into the assays such that the final concentration of DMSO was 0.9%. All reactions performed in polypropylene 384-well plate. Each was a final volume of 0.02 ml. The assay plates were incubated at room temperature with shaking for 1 hour and the affinity beads were washed with wash buffer (1×PBS, 0.05% Tween 20). The beads were then re-suspended in elution buffer (1×PBS, 0.05% Tween 20, 0.5 μM nonbiotinylated affinity ligand) and incubated at room temperature with shaking for 30 minutes. The kinase concentration in the eluates was measured by qPCR.

[2] = target: T2, Tyrosine-protein kinase JAK2 [808-1132] (Homo sapiens, UniProt O60674)
T2 construct: 808-1132
Procedure: as §1

[3] = target: T3, Tyrosine-protein kinase JAK1 [837-1142] (Homo sapiens, UniProt P23458)
T3 construct: 837-1142
Procedure: as §1

T1 sequence (P29597 575-869): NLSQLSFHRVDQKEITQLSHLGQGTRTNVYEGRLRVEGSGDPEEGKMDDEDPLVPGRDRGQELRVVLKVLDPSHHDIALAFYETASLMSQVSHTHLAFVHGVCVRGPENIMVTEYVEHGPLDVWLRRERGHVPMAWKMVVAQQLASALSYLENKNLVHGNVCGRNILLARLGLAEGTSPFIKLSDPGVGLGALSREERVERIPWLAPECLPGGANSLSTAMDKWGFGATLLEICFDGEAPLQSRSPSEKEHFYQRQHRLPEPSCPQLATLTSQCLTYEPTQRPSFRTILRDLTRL
T2 sequence (O60674 798-1132): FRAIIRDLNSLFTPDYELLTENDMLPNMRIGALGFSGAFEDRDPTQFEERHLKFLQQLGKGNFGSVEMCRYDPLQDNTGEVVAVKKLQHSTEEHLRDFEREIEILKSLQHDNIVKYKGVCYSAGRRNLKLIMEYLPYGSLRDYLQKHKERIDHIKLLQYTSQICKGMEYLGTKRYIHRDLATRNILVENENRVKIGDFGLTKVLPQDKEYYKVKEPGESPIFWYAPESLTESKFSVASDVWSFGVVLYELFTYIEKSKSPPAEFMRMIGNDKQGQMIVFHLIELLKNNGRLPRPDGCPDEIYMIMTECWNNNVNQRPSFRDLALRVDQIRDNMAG
T3 sequence (P23458 837-1142): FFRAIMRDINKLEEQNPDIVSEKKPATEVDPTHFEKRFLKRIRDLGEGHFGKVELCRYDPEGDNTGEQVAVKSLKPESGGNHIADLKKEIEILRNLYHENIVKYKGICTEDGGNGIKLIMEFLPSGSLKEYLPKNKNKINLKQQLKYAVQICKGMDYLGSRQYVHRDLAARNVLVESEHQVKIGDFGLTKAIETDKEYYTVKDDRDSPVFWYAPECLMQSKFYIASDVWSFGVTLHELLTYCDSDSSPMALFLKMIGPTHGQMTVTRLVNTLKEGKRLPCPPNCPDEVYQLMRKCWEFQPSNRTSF

## [2H]C([2H])([2H])NC(=O)c1nnc(NC(=O)C2CC2)cc1Nc1cccc(-c2cc(P(=O)(C3CC3)C3CC3)n(C)n2)c1OC [US20240343747, Example B41]
[1]
  Kd: 0.014 nM
[2]
  Kd: > 30 µM
[3]
  Kd: > 30 µM
